Reference: patent US10000471B2, “Pyrazole P38 map kinase inhibitors” (Respivert Limited, priority 2010, dated 2018)

Tests used:
[1] = target: T1, p38 MAPKα isoform (MAPK14) (Homo sapiens, UniProt Q16539); test: Enzyme inhibition assay (FRET, Z-LYTE), p38 MAPKα via MAPKAP-K2 activation; format: biochemical; conditions: read-out: Enzyme Inhibition IC50 p38α
T1 construct: purchased Invitrogen
Experimental: (§1) The enzyme inhibitory activities of compounds disclosed herein were determined by fluorescence resonance energy transfer (FRET) using synthetic peptides labelled with both donor and acceptor fluorophores (Z-LYTE, Invitrogen Ltd., Paisley, UK). Recombinant, phosphorylated p38 MAPKγ (MAPK12:Invitrogen) was diluted in HEPES buffer, mixed with the test compound at the desired final concentrations and incubated for 2 hr at RT. The FRET peptide (2 μM) and ATP (100 μM) were added to the enzyme/compound mixture and incubated for 1 hr. Development reagent (protease) was added for 1 hr prior to detection in a fluorescence microplate reader (Varioskan® Flash, ThermoFisher Scientific). The site-specific protease cleaves non-phosphorylated peptide only and eliminates the FRET signal. Phosphorylation levels of each reaction were calculated using the ratio of coumarin emission (donor) over fluorescein emission (acceptor) for which high ratios indicate high phosphorylation and low ratios indicate low phosphorylation levels. The percentage inhibition of each reaction was calculated relative to non-inhibited control and the 50% inhibitory concentration (IC50 value) then calculated from the concentration-response curve.
For the p38 MAPKα isoform (MAPK14: Invitrogen), enzyme activity was evaluated indirectly by determining the level of activation/phosphorylation of the down-stream molecule, MAPKAP-K2. The p38 MAPKα protein was mixed with the test compound for 2 hr at RT. […] Development reagent was then added and the mixture incubated for 1 hr before detection by fluorescence completed the assay protocol.

p38 MAPKγ (MAPK12) = target: T2, p38 MAPKγ (MAPK12) (Homo sapiens, UniProt P53778); test: Enzyme inhibition assay (FRET, Z-LYTE), p38 MAPKγ; format: biochemical; conditions: read-out: Enzyme Inhibition IC50 p38γ
T2 construct: purchased Invitrogen
T2 sequence (P53778 1-367): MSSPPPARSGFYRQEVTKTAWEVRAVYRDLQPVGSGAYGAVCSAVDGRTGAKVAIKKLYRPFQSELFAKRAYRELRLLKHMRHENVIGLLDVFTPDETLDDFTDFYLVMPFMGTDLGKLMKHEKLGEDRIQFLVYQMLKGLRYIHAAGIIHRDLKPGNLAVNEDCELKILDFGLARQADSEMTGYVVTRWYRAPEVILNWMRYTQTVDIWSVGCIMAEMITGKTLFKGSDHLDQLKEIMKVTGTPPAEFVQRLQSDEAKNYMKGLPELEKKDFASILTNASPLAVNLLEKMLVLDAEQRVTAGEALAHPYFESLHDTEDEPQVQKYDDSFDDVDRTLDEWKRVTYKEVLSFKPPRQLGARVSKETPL
Experimental: as §1

[2] = tested on: TNFα release in THP-1 cells; test: LPS-induced TNFα release in THP-1 cells; format: cell-based, human; conditions: Homo sapiens
Experimental: LPS-Induced TNFα Release in THP-1 Cells
THP-1 cells, a human monocytic cell line, were stimulated with 3 μg/mL of LPS (from E. Coli; 0111:B4, Sigma) for 4 hr and the supernatant collected for determination of the TNFα concentration by sandwich ELISA (Duo-set, R&D systems). The inhibition of TNFα production was calculated at each concentration by comparison with vehicle control. The 50% inhibitory concentration (IC50) was determined from the resultant concentration-response curve.

[3] = tested on: TNFα release in d-U937 cells; test: LPS-induced TNFα release in d-U937 cells; format: cell-based, human; conditions: Homo sapiens, dU937, relative to 10 μg/mL BIRB796, read-out: LPS/TNFα REC50 d-U937
Experimental: (§2) LPS-Induced TNFα/IL-8 Release in d-U937 Cells
(§3) U937 cells, a human monocytic cell line, were differentiated to macrophage-type cells by incubation with phorbol myristate acetate (PMA; 100 ng/ml) for 48 to 72 hr. Cells were pre-incubated with final concentrations of test compound for 2 hr and were then stimulated with 0.1 μg/mL of LPS (from E. Coli: O111:B4, Sigma) for 4 hr. The supernatant was collected for determination of TNFα and IL-8 concentrations by sandwich ELISA (Duo-set, R&D systems). The inhibition of TNFα production was calculated as a percentage of that achieved by 10 μg/mL of BIRB796 at each concentration of test compound by comparison against vehicle control. The relative 50% effective concentration (REC50) was determined from the resultant concentration-response curve. The inhibition of IL-8 production was calculated at each concentration of test compound by comparison with vehicle control. The 50% inhibitory concentration (IC50) was determined from the resultant concentration-response curve.

[4] = tested on: IL-8 release in d-U937 cells; test: LPS-induced IL-8 release in d-U937 cells; format: cell-based, human; conditions: Homo sapiens, dU937
Experimental: as §2, §3

[5] = tested on: ICAM-1 induction in BEAS2B cells; test: Poly I:C-induced ICAM-1 induction in BEAS2B cells; format: cell-based, human; conditions: Homo sapiens, BEAS-2B, read-out: PolyIC/ICAM1 IC50 BEAS2B
Experimental: Poly I:C-Induced ICAM-1 Induction in BEAS2B Cells
Poly I:C (1 μg/mL) (Invivogene Ltd., San Diego, Calif.) was transfected into BEAS2B cells (human bronchial epithelial cells, ATCC) with Oligofectamine (Invitrogen, Carlsbad, Calif.). Cells were pre-incubated with final concentrations of test compounds for 2 hr and the level of ICAM1 expression on the cell surface was determined by cell-based ELISA. At a time point 18 hr after poly I:C transfection, cells were fixed with 4% formaldehyde in PBS and then endogenous peroxidase was quenched by the addition of 0.1% sodium azide and 1% hydrogen peroxide. Cells were washed with wash-buffer (0.1% Tween in PBS: PBS-Tween). and after blocking the wells with 5% milk in PBS-Tween for 1 hr, the cells were incubated with anti-human ICAM-1 antibody (Cell Signaling Technology, Danvers, Mass.) in 1% BSA PBS overnight at 4° C. The cells were washed with PBS-Tween and incubated with the secondary antibody (HRP-conjugated anti-rabbit IgG, Dako Ltd., Glostrup, Denmark). The ICAM-1 signal was detected by adding substrate and reading the absorbance at 450 nm against a reference wavelength of 655 nm using a spectrophotometer. The cells were then washed with PBS-Tween and total cell numbers in each well were determined by reading absorbance at 595 nm after Crystal Violet staining and elution by 1% SDS solution. The measured OD 450-655 readings were corrected for cell number by dividing with the OD595 reading in each well. The inhibition of ICAM-1 expression was calculated at each concentration of test compound by comparison with vehicle control. The 50% inhibitory concentration (IC50) was determined from the resultant concentration-response curve.

[6] = tested on: Differentiated U937 cells; test: Cell viability MTT assay; format: cell-based, human; conditions: negative = apparent increase in viability; for MTT Assay (Viability) 4 h d-U937, percentage loss of cell viability: 4 hr in 5% FCS; for MTT Assay (Viability) 24 h d-U937, percentage loss of cell viability: 24 h in 10% FCS
Experimental: Differentiated U937 cells were pre-incubated with each test compound under two protocols: the first for 4 hr in 5% FCS and the second in 10% FCS for 24 h. The supernatant was replaced with 200 μL of new media and 10 μL of MTT stock solution (5 mg/mL) was added to each well. After incubation for 1 hr the media were removed, 200 μL of DMSO was added to each well and the plates were shaken lightly for 1 hr prior to reading the absorbance at 550 nm. The percentage loss of cell viability was calculated for each well relative to vehicle (0.5% DMSO) treatment. Consequently an apparent increase in cell viability for drug treatment relative to vehicle is tabulated as a negative percentage.

T1 sequence (Q16539 whole entry, canonical isoform): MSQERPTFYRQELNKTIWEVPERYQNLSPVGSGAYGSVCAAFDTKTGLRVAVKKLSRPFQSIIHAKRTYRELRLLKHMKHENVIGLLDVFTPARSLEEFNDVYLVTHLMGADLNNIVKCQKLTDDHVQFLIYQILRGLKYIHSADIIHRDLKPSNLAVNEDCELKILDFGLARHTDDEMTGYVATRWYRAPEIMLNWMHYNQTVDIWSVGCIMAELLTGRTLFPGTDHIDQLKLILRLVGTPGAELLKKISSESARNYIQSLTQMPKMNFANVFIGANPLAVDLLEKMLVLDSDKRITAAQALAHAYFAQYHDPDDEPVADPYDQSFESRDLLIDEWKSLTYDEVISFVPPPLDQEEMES

SMILES	IC50 [1]	IC50 (p38 MAPKγ (MAPK12))	IC50 [2]	EC50 [3]	IC50 [4]	IC50 [5]	MTT Assay (Viability) 4 h d-U937, percentage loss of cell viability [6]	MTT Assay (Viability) 24 h d-U937, percentage loss of cell viability [6]
CNC(=O)Nc1cc(Oc2ccc(NC(=O)Nc3cc(C4(C)CCCCC4)nn3-c3ccc(C)cc3)c(Cl)c2Cl)ccn1 [Example 73, 1-(3-(1-methylcyclohexyl)-1-p-tolyl-1H-pyrazol-5-yl)-3-(2,3-dichloro-4-(2-(3-methylureido)pyridin-4-yloxy)phenyl)urea]	151 nM	243 nM	12.8 nM	1.7 nM	1.9 nM	1300 nM	−27.3%	12.3%
COCC(=O)Nc1cc(Oc2ccc(NC(=O)Nc3cc(C(C)(C)C)nn3-c3ccc(C)cc3)c(Cl)c2C(F)(F)F)ccn1 [Example 37, N-(4-(4-(3-(3-tert-butyl-1-p-tolyl-1H-pyrazol-5-yl)ureido)-3-chloro-2-trifluoromethylphenoxy)pyridin-2-yl)-2-methoxyacetamide]	102 nM	159 nM	1.8 nM	1.9 nM	6.9 nM	4 nM	−0.4%	24.7%
COCC(=O)Nc1cc(COc2ccc(NC(=O)Nc3cc(C(C)(C)C)nn3-c3ccc(OC)cc3)c(Cl)c2Cl)ccn1 [Example 15, N-(4-((4-(3-(3-tert-Butyl-1-(4-methoxyphenyl)-1H-pyrazol-5-yl)ureido)-2,3-dichlorophenoxy)methyl)pyridin-2-yl)-2-methoxyacetamide]	15.7 nM	107 nM	19.9 nM	83.8 nM	162 nM	31.2 nM	−12.2%	12.4%
CN(C)CC(=O)Nc1cc(Oc2ccc(NC(=O)Nc3cc(C(C)(C)C)nn3-c3ccc(CO)cc3)c(Cl)c2Cl)ccn1 [Example 46, N-(4-(4-(3-(3-tert-butyl-1-(4-hydroxymethylphenyl)-1H-pyrazol-5-yl)ureido)-2,3-dichlorophenoxy)pyridin-2-yl)-2-(dimethylamino) acetamide]	20.9 nM	38.7 nM	0.3 nM	0.9 nM	1.1 nM	2.4 nM	−12.6%	82.7%
COc1ccc(-n2nc(C(C)(C)C)cc2NC(=O)Nc2ccc(Oc3ccnc(NC(=O)NCCCn4ccnc4)c3)c(Cl)c2Cl)cc1 [Example 69, 1-(3-(1H-imidazol-1-yl)propyl)-3-(4-(4-(3-(3-tert-butyl-1-(4-methoxyphenyl)-1H-pyrazol-5-yl)ureido)-2,3-dichlorophenoxy)pyridin-2-yl)urea]	15.2 nM	68.3 nM	1.4 nM	0.6 nM	4.2 nM	22.2 nM	8.8%	75.5%

Further lines, with some results ahead:

IC50 [1]	IC50 (p38 MAPKγ (MAPK12))	IC50 [2]	EC50 [3]	IC50 [4]	SMILES	IC50 [5]	MTT Assay (Viability) 4 h d-U937, percentage loss of cell viability [6]	MTT Assay (Viability) 24 h d-U937, percentage loss of cell viability [6]
27.4 nM	84.7 nM	0.8 nM	0.7 nM	1 nM	COc1ccc(-n2nc(C(C)(C)C)cc2NC(=O)Nc2ccc(Oc3ccnc(NC(=O)CN4CCOCC4)c3)c(Cl)c2Cl)cc1 [Example 45, N-(4-(4-(3-(3-tert-butyl-1-(4-methoxyphenyl)-1H-pyrazol-5-yl)ureido)-2,3-dichlorophenoxy)pyridin-2-yl)-2-morpholinoacetamide]	9 nM	−4.8%	56.2%
14.1 nM	33.6 nM	0.3 nM	1.8 nM	4.6 nM	COc1ccc(-n2nc(C(C)(C)C)cc2NC(=O)Nc2ccc(Oc3ccnc(NC(=O)N4CC[C@H](N(C)C)C4)c3)c(Cl)c2Cl)cc1 [Example 82, (S)-N-(4-(4-(3-(3-tert-butyl-1-(4-methoxyphenyl)-1H-pyrazol-5-yl)ureido)-2,3-dichlorophenoxy)pyridin-2-yl)-3-(dimethylamino) pyrrolidine-1-carboxamide]	2.1 nM	−13.2%	20.5%
41.2 nM	59.2 nM	1.3 nM	0.2 nM	0.6 nM	CNC(=O)Nc1cc(Oc2ccc(NC(=O)Nc3cc(C(C)(C)C)nn3-c3ccc(C)cc3)c(Cl)c2Cl)ccn1 [Example 50, 1-(3-tert-butyl-1-p-tolyl-1H-pyrazol-5-yl)-3-(2,3-dichloro-4-(2-(3-methylureido)pyridin-4-yloxy)phenyl)urea]	1.1 nM	−5.4%	35.9%
13.3 nM	58 nM	0.4 nM	0.3 nM	15.1 nM	COc1ccc(-n2nc(C(C)(C)C)cc2NC(=O)Nc2ccc(Oc3ccnc(NC(=O)N(C)C)c3)c(Cl)c2Cl)cc1 [Example 64, 3-(4-(4-(3-(3-tert-butyl-1-(4-methoxyphenyl)-1H-pyrazol-5-yl)ureido)-2,3-dichlorophenoxy)pyridin-2-yl)-1,1-dimethylurea]	1.5 nM	−37.2%	37.2%
